Data: patent US4248865A, “Novel aminoglycoside derivatives” (Shionogi & Co., Ltd., priority 1978, dated 1981)
In brackets after ≈: the same amount, converted by molar mass.

How the values were obtained:
[1] = system: Pseudomonas aeruginosa PP-6; test: MIC by agar dilution method, Pseudomonas aeruginosa PP-6; settings: PP6, read-out: Minimum Inhibitory Concentration (MIC)
Description: (§1) MIC was determined by the following agar dilution method.
(§2) One loopful of a strain of bacteria to be tested on agar slant was inoculated into a medium for growth of inoculum (Trypto Soy Broth; Eiken Chemical Co.) and incubated at 37° C. overnight.
(§3) A sample solution of aminoglycoside derivative was subjected to serial two-fold dilutions with sterile water. This diluted sample solutions were distributed to the Modified Mueller Hinton Agar medium (Nissui-seiyaku Co.), mixed gently and allowed to solidify.
(§4) One loopful of the bacterial suspension prepared in (1) was placed on the surface of the medium prepared in (2) containing the aminoglycoside derivative in various concentrations at 10^6 CFU/ml inoculum size.

[2] = system: Escherichia coli W-677/JR 762; test: MIC by agar dilution method, Escherichia coli W-677/JR 762; settings: W677/JR762, read-out: Minimum Inhibitory Concentration (MIC)
Description: as §1, §2, §3, §4

[3] = system: Klebsiella pneumoniae K1-168; test: MIC by agar dilution method, Klebsiella pneumoniae K1-168; settings: K1168, read-out: Minimum Inhibitory Concentration (MIC)
Description: as §1, §2, §3, §4

| SMILES | MIC [1] [µg/mL] | MIC [2] [µg/mL] | MIC [3] [µg/mL] |
| --- | --- | --- | --- |
| NC[C@H]1O[C@H](O[C@H]2[C@H](O)[C@@H](O[C@H]3O[C@H](CO)[C@@H](O)[C@H](N)[C@H]3O)[C@H](N)C[C@@H]2N)[C@H](N)C[C@@H]1O [TOB, tobramycin, reference compound] | > 100 | 50 (≈ 107 µM) | 100 (≈ 214 µM) |
| NC[C@H]1O[C@H](O[C@H]2[C@H](O)[C@@H](O[C@H]3O[C@H](CO)[C@@H](O)[C@H](N)[C@H]3O)[C@H](NC3=NCC[C@@H]3O)C[C@@H]2N)[C@H](N)C[C@@H]1O [[A], 1N-[(S)(-)-3-hydroxy-1-pyrrolin-2-yl]tobramycin] | 3.1 (≈ 5.63 µM) | 12.5 (≈ 22.7 µM) | 3.1 (≈ 5.63 µM) |
| NC[C@H]1O[C@H](O[C@H]2[C@H](O)[C@@H](O[C@H]3O[C@H](CO)[C@@H](O)[C@H](N)[C@H]3O)[C@H](NC3=NCCC[C@@H]3O)C[C@@H]2N)[C@H](N)C[C@@H]1O [[B], 1N-[(S)(-)-3-hydroxy-3,4,5,6-tetrahydropyridin-2-yl]tobramycin] | 6.2 (≈ 11 µM) | 12.5 (≈ 22.1 µM) | 3.1 (≈ 5.49 µM) |
